≈ marks a conversion by molar mass, not a printed value. Bounds are passed on as bounds.

Holding throughout (experiment): ≥ marks a high value that may be exact or a test limit, other limits are often not marked, values filed in µg/mL are converted to µM
The test system of experiment [1] is Bacillus subtilis KCTC 1918.
The subject of experiment [2] is Candida albicans TIMM 1768.
Experiment [3] has as its system Proteus vulgaris KCTC 2433.
For experiment [4], the system named is Saccharomyces cerevisiae KCTC 7296.
Experiment [5] concerns Salmonella typhimurium KCTC 1926.
The subject of experiment [6] is Staphylococcus aureus KCTC 1621.
Experiment [7] concerns Trichosporon beigelii KCTC 7707.
For experiment [8], the system named is Acinetobacter baumannii NM35.
For experiment [9], the system named is Acinetobacter baumannii NM8.
Experiment [10] concerns Candida albicans ATCC 90028.
In experiment [11] the test system is Enterococcus faecalis ATCC 29212.
Experiment [12] relates to Escherichia coli ATCC 25726.
Experiment [13] concerns Klebsiella pneumoniae ATCC 700603.
The test system of experiment [14] is Pseudomonas aeruginosa ATCC 27853.
Experiment [15] deals with Staphylococcus aureus 127/08.
The subject of experiment [16] is Staphylococcus aureus 145/08.
Experiment [17] deals with Staphylococcus epidermidis RP62A/1.
Experiment [18] concerns Staphylococcus epidermidis RP62A.
In experiment [19] the test system is Staphylococcus epidermidis T37/8.
Experiment [20] deals with Staphylococcus epidermidis T6/19.
Experiment [21] concerns Stenotrophomonas maltophilia B32/1.
Experiment [22] has as its system Stenotrophomonas maltophilia B5/5.
For experiment [23], the system named is Stenotrophomonas maltophilia U8908.
Experiment [24] relates to Bacillus subtilis IFO 3513.
Experiment [25] has as its system Escherichia coli IFO 12734.
Experiment [26] deals with Escherichia coli JM109.
The subject of experiment [27] is Escherichia coli W160-37.
Experiment [28] concerns Micrococcus luteus ATCC 9341.
Experiment [29] has as its system Saccharomyces cerevisiae PEP 4/3l.
Experiment [30] has as its system Staphylococcus aureus ATCC 8530.
For experiment [31], the system named is Staphylococcus aureus IFO 12732.
The test system of experiment [32] is Aspergillus flavus KCTC 7375.
In experiment [33] the test system is Bacillus megaterium KCTC 1096.
The subject of experiment [34] is Candida albicans KCTC 7121.
The subject of experiment [35] is Escherichia coli KCTC 1682.
Experiment [36] deals with Fusarium oxysporum KCTC 6084.
Experiment [37] deals with Proteus vulgaris.
Experiment [38] concerns Pseudomonas aeruginosa KCTC 1637.
Experiment [39] deals with Trichosporon beigelii KCTC 7251.
The test system of experiment [40] is Candida albicans ATCC 37092.
Experiment [41] has as its system Escherichia coli ATCC 25922.
Experiment [42] deals with Escherichia coli HB101.
Experiment [43] relates to Escherichia coli ML-35.
The test system of experiment [44] is Salmonella enterica subsp. enterica serovar Typhimurium ATCC 14028.
In experiment [45] the test system is Serratia marcescens ATCC 8100.
Experiment [46] has as its system Staphylococcus aureus ATCC 25923.
Experiment [47] relates to Staphylococcus aureus ATCC 29213.

One may read the MIC as the least concentration at which growth counts as inhibited. Read a low MIC as inhibition by little substance. Take `CC[C@H](C)[C@H](NC(=O)CNC(=O)[C@H](CC(C)C)NC(=O)[C@H](CCCN=C(N)N)NC(=O)[C@H](CCCCN)NC(=O)[C@H](Cc1ccccc1)NC(=O)[C@@H](NC(=O)[C@H](CCCCN)NC(=O)[C@H](Cc1c[nH]c2ccccc12)NC(=O)[C@H](C)N)C(C)C)C(=O)NCC(=O)N[C@@H](C)C(=O)N[C@H](C(=O)N[C@@H](CC(C)C)C(=O)N[C@@H](Cc1c[nH]c2ccccc12)C(=O)N[C@H](C(=O)N[C@@H](CC(C)C)C(=O)N[C@H](C(=O)N[C@@H](Cc1c[nH]c2ccccc12)C(=O)NCC(=O)O)[C@@H](C)O)C(C)C)C(C)C` [AWKVFKRLGIGAVLWVLTWG]: the MIC was 6.25 µM (≈ 14.4 µg/mL) in experiment [1]; no less than 50 µM in experiment [2]; 6.25 µM (≈ 14.4 µg/mL) in experiment [3]; no less than 50 µM in experiment [4]; 0.78 µM (≈ 1.79 µg/mL) in experiment [5]; 6.25 µM (≈ 14.4 µg/mL) in experiment [6]. This compound registered an MIC in experiment [7] of no less than 50 µM.
Regarding `CC[C@H](C)[C@H](NC(=O)CN)C(=O)N[C@@H](Cc1ccccc1)C(=O)N1CCC[C@H]1C(=O)N[C@H](C(=O)N[C@@H](Cc1ccccc1)C(=O)N[C@@H](C)C(=O)N[C@@H](CCCCN)C(=O)N[C@@H](CC(C)C)C(=O)N[C@@H](CC(C)C)C(=O)NCC(=O)N[C@@H](CCCCN)C(=O)N[C@H](C(=O)N[C@H](C(=O)N[C@@H](CCCCN)C(=O)N[C@H](C(=O)N[C@@H](C)C(=O)N[C@@H](CO)C(=O)N[C@@H](CO)C(=O)N[C@@H](CC(C)C)C(=O)N[C@H](C(=O)N[C@@H](CO)C(=O)N[C@@H](CCCCN)C(=O)NCC(=O)N[C@@H](CCCN=C(N)N)C(=O)N[C@H](C(=O)N[C@@H](CCC(=O)O)C(=O)O)[C@@H](C)O)[C@@H](C)CC)C(C)C)[C@@H](C)CC)C(C)C)[C@@H](C)CC` [GIFPIFAKLLGKVIKVASSLISKGRTE], the MIC is 10 µM (≈ 28.7 µg/mL) in experiment [8]; 20 µM (≈ 57.5 µg/mL) in [9]; no less than 80 µM in [10]; 20 µM (≈ 57.5 µg/mL) in [11]; no less than 80 µM in [12]; greater than 80 µM in experiment [13]. Also, the MIC in experiment [14] is greater than 80 µM; in experiment [15], 5 µM (≈ 14.4 µg/mL); in [16], 10 µM (≈ 28.7 µg/mL); in [17], 2.5 µM (≈ 7.18 µg/mL); in experiment [18], 5 µM (≈ 14.4 µg/mL); in experiment [19], 10 µM (≈ 28.7 µg/mL). Also, the MIC in experiment [20] is 5 µM (≈ 14.4 µg/mL); in [21], 10 µM (≈ 28.7 µg/mL); in [22], no less than 40 µM; in experiment [23] it was 20 µM (≈ 57.5 µg/mL).
Regarding `CC[C@H](C)[C@H](N)C(=O)N[C@@H](CC(C)C)C(=O)N1CCC[C@H]1C(=O)N[C@@H](Cc1ccccc1)C(=O)N[C@@H](CCCCN)C(=O)N[C@@H](Cc1ccccc1)C(=O)N1CCC[C@H]1C(=O)N[C@@H](Cc1ccccc1)C(=O)N[C@@H](Cc1ccccc1)C(=O)N1CCC[C@H]1C(=O)N[C@@H](Cc1ccccc1)C(=O)N[C@@H](CCCN=C(N)N)C(=O)N[C@@H](CCCN=C(N)N)C(N)=O` [ILPFKFPFFPFRR], the minimal inhibitory concentration (MIC) in [24] was 7.3 µM (≈ 12.5 µg/mL); in [25], no less than 58.4 µM; in experiment [26], 8 µM (≈ 13.7 µg/mL); in experiment [27] it was 16 µM (≈ 27.4 µg/mL); in experiment [28] it was 0.4 µM (≈ 0.684 µg/mL); in experiment [29], 13.1 µM (≈ 22.3 µg/mL). Moreover, the minimal inhibitory concentration (MIC) in [30] came out at 1.65 µM (≈ 2.83 µg/mL); in [31] it was 3.65 µM (≈ 6.25 µg/mL).
As for `CC[C@H](C)[C@H](NC(=O)[C@H](CCCCN)NC(=O)[C@H](CCCCN)NC(=O)[C@H](Cc1ccccc1)NC(=O)[C@H](CC(C)C)NC(=O)[C@H](CCCCN)NC(=O)[C@H](Cc1c[nH]c2ccccc12)NC(=O)[C@@H](N)CCCCN)C(=O)N1CCC[C@H]1C(=O)N[C@@H](CCCCN)C(=O)N[C@@H](Cc1ccccc1)C(=O)N[C@@H](CC(C)C)C(=O)N[C@@H](Cc1cnc[nH]1)C(=O)N[C@@H](CC(C)C)C(=O)N[C@@H](C)C(N)=O` [KWKLFKKIPKFLHLA], the MIC in experiment [32] is no less than 100 µM; in experiment [33], 3.12 µM (≈ 5.93 µg/mL); in [1] it was 0.78 µM (≈ 1.48 µg/mL); in experiment [34], no less than 50 µM; in experiment [35] it was 8.84 µM (≈ 16.8 µg/mL); in experiment [36] it was no less than 100 µM. Besides, the MIC in experiment [37] is 3.12 µM (≈ 5.93 µg/mL); in experiment [38], 6.25 µM (≈ 11.9 µg/mL); in [6] it was 6.25 µM (≈ 11.9 µg/mL); in experiment [39], no less than 50 µM.
`CC[C@H](C)[C@H](NC(=O)[C@H](CCCN=C(N)N)NC(=O)[C@@H](N)CCCN=C(N)N)C(=O)N[C@@H](CCCN=C(N)N)C(=O)N1CCC[C@H]1C(=O)N[C@@H](CCCN=C(N)N)C(=O)N1CCC[C@H]1C(=O)N1CCC[C@H]1C(=O)N[C@@H](CCCN=C(N)N)C(=O)N[C@@H](CC(C)C)C(=O)N1CCC[C@H]1C(=O)N[C@@H](CCCN=C(N)N)C(=O)N1CCC[C@H]1C(=O)N[C@@H](CCCN=C(N)N)C(=O)N1CCC[C@H]1C(=O)O` [RRIRPRPPRLPRPRP]: the minimum inhibitory concentration (MIC) is 28.8 µM (≈ 55.3 µg/mL) in experiment [40]; 45.3 µM (≈ 86.9 µg/mL) in experiment [41]; 16 µM (≈ 30.7 µg/mL) in [42]; no less than 128 µM in experiment [43]; 128 µM (≈ 246 µg/mL) in experiment [44]; no less than 128 µM in [45]. Also, the values for the minimal inhibitory concentration (MIC) in experiment [46] and in [47] were greater than 128 µM and greater than 500 µM, respectively.

These data come from DBAASP.
